Data taken from publication PMC6934184, “Selective DNA-PKcs inhibition extends the therapeutic index of localized radiotherapy and chemotherapy” (The Journal of Clinical Investigation, 2019).

Target: T1, CDK2/cyclin O (Homo sapiens, UniProt P24941)
T1 construct: purchased Thermo Fisher Scientific (Life Technologies) SelectScreen
Experiment: SelectScreen LanthaScreen
Assay type: binding
Conditions: 1 µM
Method in brief: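 NU5455 was profiled across the SelectScreen Broad panel of kinase activity and binding assays. Z'LYTE reactions such as CSF1R ran at apparent Km ATP, while the Adapta CAMK1 assay used ATP listed as 10. Values are given as percent.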

CN(C(=O)CN1CCOCC1)c1ccc2sc3c(-c4cccc5c(=O)cc(N6CC7CCC(C6)O7)oc45)cccc3c2c1 [NU5455]
% displacement: 0.9%
